Data from patent US20160095855A1, “USE OF A POLYMORPH OF FLIBANSERIN FOR TREATING DISEASE” (Sprout Pharmaceuticals, Inc., priority 2001, published 2016).

Experiments:
[1] = biological target: T1, 5-HT1A receptor (Homo sapiens, UniProt P08908); settings: qualitative background statement; cited from earlier work
T1 sequence (P08908 1-422): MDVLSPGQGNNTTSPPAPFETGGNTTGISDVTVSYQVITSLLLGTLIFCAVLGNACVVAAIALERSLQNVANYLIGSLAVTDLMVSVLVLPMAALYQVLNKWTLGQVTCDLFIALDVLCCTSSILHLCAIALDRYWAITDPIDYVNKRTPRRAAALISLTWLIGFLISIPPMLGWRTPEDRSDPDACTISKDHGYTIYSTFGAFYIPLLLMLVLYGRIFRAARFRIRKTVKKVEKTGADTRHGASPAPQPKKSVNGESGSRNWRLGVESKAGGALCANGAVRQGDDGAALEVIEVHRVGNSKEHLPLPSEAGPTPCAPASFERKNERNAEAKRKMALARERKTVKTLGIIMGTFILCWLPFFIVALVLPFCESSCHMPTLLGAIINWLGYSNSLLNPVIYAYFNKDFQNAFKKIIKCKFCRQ

[2] = system: 5-HT2-receptor; settings: qualitative background statement; cited from earlier work
[3] = stability under mechanical stress produced by grinding; assay type: physicochemical; settings: solid state, crystalline modification of free base

SMILES	affinity for the 5-HT1A receptor [1]	affinity for the 5-HT2-receptor [2]	stability under the effects of mechanical stress produced by grinding [3]
O=c1[nH]c2ccccc2n1CCN1CCN(c2cccc(C(F)(F)F)c2)CC1 [Flibanserin, 1-[2-(4-(3-trifluoromethyl-phenyl)piperazin-1-yl)ethyl]-2,3-dihydro-1H-benzimidazol-2-one]	shows affinity	shows affinity	–
O=c1[nH]c2ccccc2n1CCN1CCN(c2cccc(C(F)(F)F)c2)CC1 [polymorph A, 1-[2-(4-(3-trifluoromethyl-phenyl)piperazin-1-yl)ethyl]-2,3-dihydro-1H-benzimidazol-2-one]	–	–	fulfill the aforementioned stability requirements
O=c1[nH]c2ccccc2n1CCN1CCN(c2cccc(C(F)(F)F)c2)CC1 [polymorph B, 1-[2-(4-(3-trifluoromethyl-phenyl)piperazin-1-yl)ethyl]-2,3-dihydro-1H-benzimidazol-2-one]	–	–	little stability
